PubChem BioAssay (NCI)
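Following 48 hours of exposure in 96-well plates, responses at five concentrations were used to interpolate endpoints linearly. TGI: total growth inhibition.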

Legend:
Assay in all cases: NCI tumour cell line growth inhibition, 48 h
SNB-78 CNS = system: SNB-78 CNS
M19-MEL melanoma = system: M19-MEL melanoma
DLD-1 colon = system: DLD-1 colon
A498 renal = system: A498 renal
XF 498 CNS = system: XF 498 CNS
DMS 114 small cell lung = system: DMS 114 small cell lung
T-47D breast = system: T-47D breast
PC-3 prostate = system: PC-3 prostate
SN12K1 renal = system: SN12K1 renal
P388/ADR leukemia = system: P388/ADR leukemia

CCC1NC(N=Nc2ccc([N+](=O)[O-])cc2)(P(=O)(OC(C)C)OC(C)C)OC1=O (configuration not stated)
TGI (SNB-78 CNS): > 100 µM
TGI (M19-MEL melanoma): > 100 µM
TGI (DLD-1 colon): > 100 µM
TGI (A498 renal): > 100 µM
TGI (XF 498 CNS): > 100 µM

CCn1cnnc1-c1nsc2ccccc12
TGI (SNB-78 CNS): > 100 µM
TGI (M19-MEL melanoma): > 100 µM
TGI (DMS 114 small cell lung): > 100 µM

CN(Cc1cnc2c(N)nc(N)nc2n1)c1ccc(Cl)cc1
TGI (T-47D breast): > 100 µM
TGI (A498 renal): 98.5 µM
TGI (PC-3 prostate): > 100 µM

CC(C)NC(=O)OCc1c2c(n(C)c1COC(=O)NC(C)C)-c1ccccc1CC2
TGI (SN12K1 renal): 24.4 µM
TGI (SNB-78 CNS): 72 µM
TGI (M19-MEL melanoma): 23 µM
TGI (DLD-1 colon): 16.9 µM
TGI (A498 renal): 61.7 µM
TGI (DMS 114 small cell lung): 17 µM
TGI (P388/ADR leukemia): 5.27 µM
TGI (XF 498 CNS): 28.2 µM

Cc1ccc2c(=O)c3ccccc3sc2c1
TGI (M19-MEL melanoma): > 100 µM
TGI (DLD-1 colon): > 100 µM

C[C@@H]1CC[C@@]2(OC1)O[C@H]1C[C@H]3[C@@H]4CC[C@H]5C[C@@H](OC6OC(CO)C(OC7OC(CO)C(O)C(OC8OCC(O)C(O)C8O)C7OC7OC(CO)C(O)C(O)C7O)C(O)C6O)[C@H](O)C[C@]5(C)[C@H]4CC[C@]3(C)[C@H]1[C@@H]2C (some centres not stated)
TGI (T-47D breast): 28 µM
TGI (A498 renal): 29.7 µM
TGI (PC-3 prostate): 15.3 µM

O=C(O)C1CCCCN1c1ccccc1[N+](=O)[O-] (configuration not stated)
TGI (SNB-78 CNS): > 100 µM
TGI (M19-MEL melanoma): > 100 µM
TGI (DLD-1 colon): > 100 µM
TGI (DMS 114 small cell lung): > 100 µM
TGI (XF 498 CNS): > 100 µM

O=c1oc2cc(O)ccc2c(O)c1Cc1c(O)c2ccc(O)cc2oc1=O
TGI (T-47D breast): > 100 µM
TGI (A498 renal): > 100 µM
TGI (PC-3 prostate): > 100 µM
